From PubChem BioAssay (NCI)
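The compound was tested at five concentrations on cells cultured in 96-well plates, with a 48-hour exposure period. TGI: concentration producing complete growth inhibition.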

How the values were obtained:
Experiment in all cases: NCI tumour cell line growth inhibition, 48 h
[1] = test system: 786-0 renal
[2] = test system: A498 renal
[3] = test system: A549 NSCLC
[4] = test system: ACHN renal
[5] = test system: CAKI-1 renal
[6] = test system: CCRF-CEM leukemia
[7] = test system: COLO 205 colon
[8] = test system: DLD-1 colon
[9] = test system: DMS 114 small cell lung
[10] = test system: DMS 273 small cell lung
[11] = test system: EKVX NSCLC
[12] = test system: HCT-116 colon
[13] = test system: HCT-15 colon
[14] = test system: HL-60(TB) leukemia
[15] = test system: HOP-18 NSCLC
[16] = test system: HOP-62 NSCLC
[17] = test system: HOP-92 NSCLC
[18] = test system: HT29 colon
[19] = test system: IGROV1 ovarian
[20] = test system: K-562 leukemia
[21] = test system: KM12 colon
[22] = test system: KM20L2 colon
[23] = test system: LOX IMVI melanoma
[24] = test system: LXFL 529 NSCLC
[25] = test system: M14 melanoma
[26] = test system: M19-MEL melanoma
[27] = test system: MALME-3M melanoma
[28] = test system: MOLT-4 leukemia
[29] = test system: NCI-H226 lung
[30] = test system: NCI-H23 lung
[31] = test system: NCI-H460 lung
[32] = test system: NCI-H522 lung
[33] = test system: OVCAR-3 ovarian
[34] = test system: OVCAR-4 ovarian
[35] = test system: OVCAR-5 ovarian
[36] = test system: OVCAR-8 ovarian
[37] = test system: RPMI-8226 leukemia
[38] = test system: RXF 393 renal
[39] = test system: SF-268 CNS
[40] = test system: SF-295 CNS
[41] = test system: SF-539 CNS
[42] = test system: SK-MEL-28 melanoma
[43] = test system: SK-MEL-5 melanoma
[44] = test system: SN12C renal
[45] = test system: SNB-19 CNS
[46] = test system: SNB-75 CNS
[47] = test system: SNB-78 CNS
[48] = test system: SW-620 colon
[49] = test system: TK-10 renal
[50] = test system: U251 CNS
[51] = test system: UACC-257 melanoma
[52] = test system: UACC-62 melanoma
[53] = test system: UO-31 renal
[54] = test system: XF 498 CNS
[55] = test system: HCC-2998 colon
[56] = test system: SK-MEL-2 melanoma
[57] = test system: SK-OV-3 ovarian

**Q.** What does the source list for COc1cc(/C=C/c2cccnc2)cc(OC)c1OC?
**A.** TGI [1]: > 100 µM; TGI [2]: > 100 µM; TGI [3]: > 100 µM; TGI [4]: > 100 µM; TGI [5]: > 100 µM; TGI [6]: > 100 µM; TGI [7]: > 100 µM; TGI [8]: > 100 µM; TGI [9]: > 100 µM; TGI [10]: > 100 µM; TGI [11]: > 100 µM; TGI [12]: > 100 µM; TGI [13]: > 100 µM; TGI [14]: > 100 µM; TGI [15]: > 100 µM; TGI [16]: > 100 µM; TGI [17]: > 100 µM; TGI [18]: > 100 µM; TGI [19]: > 100 µM; TGI [20]: > 100 µM; TGI [21]: > 100 µM; TGI [22]: > 100 µM; TGI [23]: > 100 µM; TGI [24]: > 100 µM; TGI [25]: > 100 µM; TGI [26]: > 100 µM; TGI [27]: > 100 µM; TGI [28]: > 100 µM; TGI [29]: > 100 µM; TGI [30]: > 100 µM; TGI [31]: > 100 µM; TGI [32]: > 100 µM; TGI [33]: > 100 µM; TGI [34]: > 100 µM; TGI [35]: > 100 µM; TGI [36]: > 100 µM; TGI [37]: > 100 µM; TGI [38]: > 100 µM; TGI [39]: > 100 µM; TGI [40]: > 100 µM; TGI [41]: > 100 µM; TGI [42]: > 100 µM; TGI [43]: > 100 µM; TGI [44]: > 100 µM; TGI [45]: > 100 µM; TGI [46]: > 100 µM; TGI [47]: > 100 µM; TGI [48]: > 100 µM; TGI [49]: > 100 µM; TGI [50]: > 100 µM; TGI [51]: > 100 µM; TGI [52]: > 100 µM; TGI [53]: > 100 µM; TGI [54]: > 100 µM

**Q.** With CCC(C)NC1=C(NC(C)=O)C(=O)c2ccccc2C1=O (stereo not given) as the molecule, how does the TGI [1] read?
**A.** The TGI was over 7.5 µM.

**Q.** What about the TGI [2] of the same molecule?
**A.** Its TGI is over 75 µM.

**Q.** And the TGI [3]?
**A.** Its TGI is over 75 µM.

**Q.** And the TGI [4]?
**A.** Its TGI is over 75 µM.

**Q.** And the TGI [5]?
**A.** Its TGI is over 75 µM.

**Q.** And the TGI [6]?
**A.** Its TGI is over 75 µM.

**Q.** What about the TGI [7] of the same molecule?
**A.** Its TGI is over 75 µM.

**Q.** What about the TGI [8] of the same molecule?
**A.** Its TGI is over 75 µM.

**Q.** And the TGI [9]?
**A.** Its TGI is over 75 µM.

**Q.** And the TGI [10]?
**A.** The TGI was over 75 µM.

**Q.** And the TGI [11]?
**A.** The TGI was over 75 µM.

**Q.** What about the TGI [55] of the same molecule?
**A.** The TGI was over 75 µM.

**Q.** And the TGI [12]?
**A.** Its TGI is over 75 µM.

**Q.** And the TGI [13]?
**A.** The TGI was over 75 µM.

**Q.** What about the TGI [14] of the same molecule?
**A.** The TGI was 43.1 µM.

**Q.** And the TGI [15]?
**A.** Its TGI is over 75 µM.

**Q.** What about the TGI [16] of the same molecule?
**A.** Its TGI is over 75 µM.

**Q.** And the TGI [17]?
**A.** Its TGI is over 75 µM.

**Q.** And the TGI [18]?
**A.** Its TGI is over 75 µM.

**Q.** What about the TGI [19] of the same molecule?
**A.** Its TGI is over 75 µM.

**Q.** And the TGI [20]?
**A.** Its TGI is over 75 µM.

**Q.** And the TGI [21]?
**A.** Its TGI is over 75 µM.

**Q.** And the TGI [22]?
**A.** Its TGI is over 75 µM.

**Q.** And the TGI [23]?
**A.** The TGI was 40 µM.

**Q.** And the TGI [24]?
**A.** The TGI was over 75 µM.

**Q.** And the TGI [25]?
**A.** Its TGI is over 75 µM.

**Q.** And the TGI [26]?
**A.** The TGI was over 75 µM.

**Q.** What about the TGI [27] of the same molecule?
**A.** The TGI was over 75 µM.

**Q.** What about the TGI [28] of the same molecule?
**A.** Its TGI is over 75 µM.

**Q.** And the TGI [29]?
**A.** Its TGI is over 75 µM.

**Q.** And the TGI [30]?
**A.** The TGI was over 75 µM.

**Q.** What about the TGI [31] of the same molecule?
**A.** The TGI was over 75 µM.

**Q.** And the TGI [33]?
**A.** The TGI was over 75 µM.

**Q.** And the TGI [34]?
**A.** The TGI was over 75 µM.

**Q.** What about the TGI [35] of the same molecule?
**A.** Its TGI is over 75 µM.

**Q.** And the TGI [36]?
**A.** The TGI was over 75 µM.

**Q.** What about the TGI [37] of the same molecule?
**A.** The TGI was 37.9 µM.

**Q.** And the TGI [38]?
**A.** The TGI was over 75 µM.

**Q.** What about the TGI [39] of the same molecule?
**A.** Its TGI is over 75 µM.

**Q.** And the TGI [40]?
**A.** The TGI was over 75 µM.

**Q.** What about the TGI [41] of the same molecule?
**A.** The TGI was over 75 µM.

**Q.** What about the TGI [56] of the same molecule?
**A.** The TGI was over 75 µM.

**Q.** And the TGI [42]?
**A.** The TGI was over 75 µM.

**Q.** And the TGI [43]?
**A.** The TGI was over 75 µM.

**Q.** What about the TGI [57] of the same molecule?
**A.** The TGI was over 75 µM.

**Q.** And the TGI [44]?
**A.** Its TGI is over 75 µM.

**Q.** What about the TGI [45] of the same molecule?
**A.** The TGI was over 75 µM.

**Q.** And the TGI [46]?
**A.** Its TGI is over 75 µM.

**Q.** And the TGI [47]?
**A.** The TGI was over 75 µM.

**Q.** And the TGI [48]?
**A.** Its TGI is over 75 µM.

**Q.** And the TGI [49]?
**A.** Its TGI is over 75 µM.

**Q.** What about the TGI [50] of the same molecule?
**A.** Its TGI is over 75 µM.

**Q.** And the TGI [51]?
**A.** Its TGI is over 75 µM.

**Q.** And the TGI [52]?
**A.** The TGI was over 75 µM.

**Q.** What about the TGI [53] of the same molecule?
**A.** Its TGI is over 75 µM.

**Q.** What about the TGI [54] of the same molecule?
**A.** The TGI was over 75 µM.
